In US9573954B2, “Pyrazolopyrimidine compounds” (University Health Network, priority 2012, dated 2017):

Columns and labels:
human TTK = target: T1, human TTK (Homo sapiens, UniProt P33981); test: TTK inhibition assay (indirect ELISA); format: biochemical; conditions: Table 2; 16 μM ATP (asterisk); read-out: TTK IC50 Range
T1 construct: Active TTK was purchased from Invitrogen as an amino terminal GST fusion of full length human TTK; purchased Invitrogen
T1 sequence (P33981 1-857): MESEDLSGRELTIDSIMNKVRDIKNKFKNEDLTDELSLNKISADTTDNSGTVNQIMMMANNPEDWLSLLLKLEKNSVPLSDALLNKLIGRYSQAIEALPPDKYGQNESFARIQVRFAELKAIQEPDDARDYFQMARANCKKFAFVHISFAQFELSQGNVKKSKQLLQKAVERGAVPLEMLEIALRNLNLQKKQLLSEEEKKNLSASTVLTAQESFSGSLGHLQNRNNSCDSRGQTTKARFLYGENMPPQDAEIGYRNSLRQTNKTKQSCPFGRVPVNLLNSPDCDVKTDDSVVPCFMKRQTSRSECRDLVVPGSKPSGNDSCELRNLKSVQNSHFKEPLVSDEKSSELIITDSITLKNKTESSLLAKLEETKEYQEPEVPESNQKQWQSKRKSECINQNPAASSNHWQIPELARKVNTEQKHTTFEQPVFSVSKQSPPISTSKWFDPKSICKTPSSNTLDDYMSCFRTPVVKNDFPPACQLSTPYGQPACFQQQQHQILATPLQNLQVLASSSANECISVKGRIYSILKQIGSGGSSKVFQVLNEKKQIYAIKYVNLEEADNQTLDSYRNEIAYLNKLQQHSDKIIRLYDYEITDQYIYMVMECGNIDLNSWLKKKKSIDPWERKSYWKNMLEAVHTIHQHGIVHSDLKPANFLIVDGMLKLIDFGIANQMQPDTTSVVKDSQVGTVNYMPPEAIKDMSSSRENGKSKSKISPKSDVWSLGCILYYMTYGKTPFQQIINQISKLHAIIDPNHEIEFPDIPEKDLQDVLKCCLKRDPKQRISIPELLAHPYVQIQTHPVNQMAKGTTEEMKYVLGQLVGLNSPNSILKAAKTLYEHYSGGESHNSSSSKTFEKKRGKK
Method in brief: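 Activity detected by indirect ELISA after compounds sat with full-length GST-TTK for 5 min prior to starting the reaction with ATP. IC50 came from a four-parameter logistic curve of % inhibition, calculated against background and uninhibited control wells.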

[1] = test system: ovarian cancer cells (PA-1); test: Cancer cell line growth inhibition, Sulforhodamine B assay, PA-1; format: cell-based; conditions: 120 h; Table 2; PA-1, 5 days, SRB; read-out: Cancer Cell Line GI50 Range PA-1
Method in brief: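 PA-1 ovarian cancer cells seeded 24 h before compound, then exposed to final 10 nM to 50 μM in DMEM/10% FBS for 5 days. Cell mass measured by TCA fixation and sulforhodamine B staining, absorbance 570 nm; GI50 derived from growth inhibition relative to DMSO-treated cells.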

[2] = test system: Colon 12 tumor initiating cells; test: Tumor-initiating cell growth inhibition, Alamar Blue assay, colon TICs; format: cell-based; conditions: 216 h; Table 2; colon TICs, 9 days, Alamar Blue; read-out: Tumor Initiating Cell GI50 Range Colon 12
Method in brief: (§1)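 Colon TICs (4,000/well, non-TC plates) and ovarian TICs (1,000/well, TC plates) kept in serum-free DMEM:F12 with B-27, heparin, bFGF and EGF. Compound added after 24 h at 0.1% DMSO, then 9 days (colon) or 6 days (ovarian) at 37° C. GI50 from Alamar Blue fluorescence (ex 544/em 590) after 4 h.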

[3] = test system: breast cancer cells (MDA-MB-231); test: Cancer cell line growth inhibition, Sulforhodamine B assay, MDA-MB-231; format: cell-based; conditions: Homo sapiens, 120 h; Table 2; MDA-MB-231, 5 days, SRB; read-out: Cancer Cell Line GI50 Range MDA-MB-231
Description: Breast cancer cells (MDA-MB-231 and MDA-MB-468), colon cancer cells (HCT116) and ovarian cancer cells (PA-1 and OVCAR-3) were seeded (1000 to 4000 in 80 μl per well depending on the cell growth rate) into 96 well plates 24 hours before compound overlay. Compounds were prepared as 10 mM stock solutions in 100% DMSO which were diluted with DMEM (Dulbecco's Modified Eagle's Medium) cell growth Medium (Invitrogen, Burlington, ON, Canada) containing 10% FBS (Fetal Bovine Serum) to concentrations ranging from 50 nM to 250 μM. Aliquots (20 μl) from each concentration were overlaid to 80 μl of the pre-seeded cells in the 96 well plates to make final concentrations of 10 nM to 50 μM. The cells were cultured for 5 days before the Sulforhodamine B assay (SRB) was performed to determine the compound's cell growth inhibition activity.
Sulforhodamine B (purchased from Sigma, Oakville, ON, Canada) is a water-soluble dye that binds to the basic amino acids of the cellular proteins. Thus, colorimetric measurement of the bound dye provides an estimate of the total protein mass that is related to the cell number. the cells are fixed in situ by gently aspirating off the culture media and adding 50 μl ice cold 10% Trichloroacetic Acid (TCA) per well and incubate at 4° C. for 30-60 min, The plates are washed with H2O five times and allowed to air dry for 5 min. Addition of 50 μl 0.4% (w/v) SRB solution in 1% (v/v) acetic acid to each well and incubation for 30 min at RT completes the staining reaction. Following staining, plates are washed four times with 1% acetic acid to remove unbound dye and then allowed to air dry for 5 min. The stain is solubilized with 100 μl of 10 mM Tris pH 10.5 per well. Absorbance is read at 570 nm.
The percentage (%) of relative growth inhibition was calculated by comparing to DMSO treated only cells (100%). GI50's were determined for compounds with cytotoxic activity. The GI50 was calculated using GraphPad PRISM software (GraphPad Software, Inc., San Diego, Calif., USA).
In Table 2 below, GI50 value ranges for compound examples against breast cancer cell lines (MDA-MB-231), colon cancer cell lines (HCT116) and ovarian cancer cell lines (PA-1) are given.

[4] = test system: colon cancer cells (HCT116); test: Cancer cell line growth inhibition, Sulforhodamine B assay, HCT116; format: cell-based; conditions: Homo sapiens, HCT-116, 120 h, Table 2; HCT116, 5 days, SRB; read-out: Cancer Cell Line GI50 Range HCT116
Method in brief: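 HCT116 cells, 1000–4000 per well, seeded 24 h ahead, then treated 5 days with compound at 10 nM to 50 μM final in DMEM with 10% FBS. Growth measured by sulforhodamine B staining after TCA fixation, A570; GI50 from inhibition relative to DMSO-only cells.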

[5] = test system: Ovarian 2393A tumor initiating cells; test: Tumor-initiating cell growth inhibition, Alamar Blue assay, ovarian TICs; format: cell-based; conditions: 144 h; Table 2; ovarian TICs, 6 days, Alamar Blue; read-out: Tumor Initiating Cell GI50 Range Ovarian 2393A
Method in brief: as §1

| SMILES | IC50 (human TTK) [nM] | GI50 [1] [nM] | GI50 [2] [nM] | GI50 [3] [nM] | GI50 [4] [nM] | GI50 [5] [nM] |
| --- | --- | --- | --- | --- | --- | --- |
| Cc1cc(-c2cnn3c(NCCCN4CCOCC4)cc(Oc4ccccc4)nc23)ccc1C(=O)NC1CC1 [Example B19, N-cyclopropyl-2-methyl-4-(7-((3-morpholinopropyl)amino)-5-phenoxypyrazolo[1,5-a]pyrimidin-3-yl)benzamide] | < 100 | ≤ 100 | 100 to 500 | 100 to 500 | 100 to 500 | 100 to 500 |
| Cc1cc(-c2cnn3c(NCCC4CCOCC4)cc(Oc4ccccc4)nc23)ccc1C(=O)NC1CC1 [Example B20, N-cyclopropyl-2-methyl-4-(5-phenoxy-7-((2-(tetrahydro-2H-pyran-4-yl)ethyl)amino)pyrazolo[1,5-a]pyrimidin-3-yl)benzamide] | < 100 | ≤ 100 | ≤ 100 | ≤ 100 | ≤ 100 | ≤ 100 |
